Results taken from US20060069132A1, “Azolecarboxamide herbicides” (priority 2004, published 2006).

Tests used:
[1] = tested on: smallflower umbrella sedge; assay: Test C flooded paddy test; format: in vivo, Cyperus difformis; conditions: for Plant response rating, Sedge, Umbrella: 500 g ai/ha, visual rating after 12 to 14 days
morningglory = assay: Test A pre-/postemergence herbicide test; format: in vivo, Ipomoea spp.; conditions: for Plant response rating, Morningglory: Postemergence; for Morningglory plant response rating: Preemergence
Outline: (§1)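 Visual injury rating on a 0–100 scale (0 no effect, 100 complete control) versus untreated controls, about ten days after treatment in greenhouse. Pre: directed soil spray onto seeded sandy loam. Post: spray to runoff on plants 2–10 cm tall at one- to two-leaf stage.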

Surinam grass = assay: Test C pre-/postemergence herbicide test; format: in vivo, Urochloa decumbens; conditions: for Plant response rating, Surinam Grass / Plant response rating (0 = no effect, 100 = complete control), Surinam Grass: preemergence; for Plant response rating (0 = no effect, 100 = complete control), Surinam Grass: 62 g ai/ha
Outline: (§2)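 Pre- and postemergence application, solvent/surfactant formulation; post at 1- to 4-leaf stage (2–18 cm). Greenhouse 12–14 d. Visual rating vs controls, 0 = no effect, 100 = complete control.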

johnsongrass = assay: Test C pre-/postemergence herbicide test; format: in vivo, Sorghum halepense; conditions: for Plant response rating, Johnsongrass / Plant response rating (0 = no effect, 100 = complete control), Johnsongrass: preemergence; for Plant response rating (0 = no effect, 100 = complete control), Johnsongrass: 62 g ai/ha
Outline: as §2

ducksalad = assay: Test C flooded paddy test; format: in vivo, Heteranthera limosa; conditions: for Plant response rating, Ducksalad: 500 g ai/ha, visual rating after 12 to 14 days
bermudagrass = assay: Test C pre-/postemergence herbicide test; format: in vivo, Cynodon dactylon; conditions: for Plant response rating, Bermudagrass / Plant response rating (0 = no effect, 100 = complete control), Bermudagrass: preemergence; for Plant response rating (0 = no effect, 100 = complete control), Bermudagrass: 62 g ai/ha
Outline: as §2

cocklebur = assay: Test C pre-/postemergence herbicide test; format: in vivo, Xanthium strumarium; conditions: for Plant response rating, Cocklebur / Plant response rating (0 = no effect, 100 = complete control), Cocklebur: preemergence; for Plant response rating (0 = no effect, 100 = complete control), Cocklebur: 62 g ai/ha
Outline: as §2

pigweed = assay: Test C pre-/postemergence herbicide test; format: in vivo, Amaranthus retroflexus; conditions: for Plant response rating, Pigweed / Plant response rating (0 = no effect, 100 = complete control), Pigweed: preemergence; for Plant response rating (0 = no effect, 100 = complete control), Pigweed: 62 g ai/ha
Outline: as §2

soybean = assay: Test C pre-/postemergence herbicide test; format: in vivo, Glycine max; conditions: for Plant response rating, Soybean / Plant response rating (0 = no effect, 100 = complete control), Soybean: preemergence; for Plant response rating (0 = no effect, 100 = complete control), Soybean: 62 g ai/ha
Outline: as §2

velvetleaf = assay: Test A pre-/postemergence herbicide test; format: in vivo, Abutilon theophrasti; conditions: for Plant response rating, Velvetleaf: Postemergence, 0 to 100 scale, 0 no effect, 100 complete control; for Velvetleaf plant response rating: Preemergence, visual rating, 0 to 100 scale (0 no effect, 100 complete control)
Outline: as §1

goosegrass = assay: Test C pre-/postemergence herbicide test; format: in vivo, Eleusine indica; conditions: for Plant response rating, Goosegrass / Plant response rating (0 = no effect, 100 = complete control), Goosegrass: preemergence; for Plant response rating (0 = no effect, 100 = complete control), Goosegrass: 62 g ai/ha
Outline: as §2

[2] = 62 g ai/ha, scale 0 to 100 (0 no effect, 100 complete control)
[3] = 125 g ai/ha, scale of 0 to 100, 0 is no effect, 100 is complete control
[4] = 250 g ai/ha, scale of 0 to 100, 0 is no effect, 100 is complete control
[5] = scale 0 to 100 (0 no effect, 100 complete control)
[6] = 500 g ai/ha, 0 to 100 scale, 0 no effect, 100 complete control
[7] = 2000 g ai/ha, 0 to 100 scale, 0 no effect, 100 complete control
[8] = 500 g ai/ha, visual rating, 0 to 100 scale (0 no effect, 100 complete control)
[9] = 125 g ai/ha, scale 0 (no effect) to 100 (complete control), visual, 12 to 14 days
[10] = 250 g ai/ha, scale 0 to 100 (0 no effect, 100 complete control), visual, 12 to 14 days
[11] = Preemergence, 500 g ai/ha, scale 0 to 100, 0 no effect, 100 complete control

## CCn1nc(C(C)(C)C)cc1C(=O)Nc1cccc(C(=O)NCC2CC2)c1 [Compound 62]
[1]; [2]
  Sedge, Umbrella plant response rating: 45
[1]; [3]
  Sedge, Umbrella plant response rating: 60
[1]; [4]
  Sedge, Umbrella plant response rating: 80
[1]; [5]
  Plant response rating, Sedge, Umbrella: 85
morningglory; [6]
  Plant response rating, Morningglory: 10
morningglory; [7]
  Plant response rating, Morningglory: 20
  Morningglory plant response rating: 75
morningglory; [8]
  Morningglory plant response rating: 20
Surinam grass; 31 g ai/ha, scale 0 to 100
  Plant response rating, Surinam Grass: 0
Surinam grass
  Plant response rating (0 = no effect, 100 = complete control), Surinam Grass: 5
Surinam grass; [9]
  Plant response rating, Surinam Grass: 10
Surinam grass; [10]
  Plant response rating, Surinam Grass: 50
johnsongrass; 31 g ai/ha, scale 0 to 100
  Plant response rating, Johnsongrass: 0
johnsongrass
  Plant response rating (0 = no effect, 100 = complete control), Johnsongrass: 40
johnsongrass; [9]
  Plant response rating, Johnsongrass: 40
johnsongrass; [10]
  Plant response rating, Johnsongrass: 70
ducksalad; [2]
  Ducksalad plant response rating: 25
ducksalad; [3]
  Ducksalad plant response rating: 35
ducksalad; [4]
  Ducksalad plant response rating: 90
ducksalad; [5]
  Plant response rating, Ducksalad: 90
bermudagrass; 31 g ai/ha, scale 0 to 100
  Plant response rating, Bermudagrass: 0
bermudagrass
  Plant response rating (0 = no effect, 100 = complete control), Bermudagrass: 10
bermudagrass; [9]
  Plant response rating, Bermudagrass: 90
bermudagrass; [10]
  Plant response rating, Bermudagrass: 95
cocklebur; 31 g ai/ha, scale 0 to 100
  Plant response rating, Cocklebur: 0
cocklebur
  Plant response rating (0 = no effect, 100 = complete control), Cocklebur: 0
cocklebur; [9]
  Plant response rating, Cocklebur: 0
cocklebur; [10]
  Plant response rating, Cocklebur: 0
pigweed; 31 g ai/ha, scale 0 to 100
  Plant response rating, Pigweed: 90
pigweed
  Plant response rating (0 = no effect, 100 = complete control), Pigweed: 95
pigweed; [9]
  Plant response rating, Pigweed: 95
pigweed; [10]
  Plant response rating, Pigweed: 95
soybean; 31 g ai/ha, scale 0 to 100
  Plant response rating, Soybean: 0
soybean
  Plant response rating (0 = no effect, 100 = complete control), Soybean: 0
soybean; [9]
  Plant response rating, Soybean: 0
soybean; [10]
  Plant response rating, Soybean: 30
velvetleaf; 2000 g ai/ha
  Plant response rating, Velvetleaf: 20
  Velvetleaf plant response rating: 95
velvetleaf; 500 g ai/ha
  Velvetleaf plant response rating: 70
goosegrass; 31 g ai/ha, scale 0 to 100
  Plant response rating, Goosegrass: 0
goosegrass
  Plant response rating (0 = no effect, 100 = complete control), Goosegrass: 10
goosegrass; [9]
  Plant response rating, Goosegrass: 70
goosegrass; [10]
  Plant response rating, Goosegrass: 85

## CCN1CCc2c(NC(=O)c3cc(C(C)(C)C)nn3CC)cccc2C1=O [Compound 63]
[1]; [2]
  Sedge, Umbrella plant response rating: 0
[1]; [3]
  Sedge, Umbrella plant response rating: 70
[1]; [4]
  Sedge, Umbrella plant response rating: 80
[1]; [5]
  Plant response rating, Sedge, Umbrella: 90
morningglory; [6]
  Plant response rating, Morningglory: 15
morningglory; [7]
  Plant response rating, Morningglory: 15
  Morningglory plant response rating: 70
morningglory; [8]
  Morningglory plant response rating: 10
Surinam grass
  Plant response rating (0 = no effect, 100 = complete control), Surinam Grass: 0
Surinam grass; [9]
  Plant response rating, Surinam Grass: 5
Surinam grass; [10]
  Plant response rating, Surinam Grass: 45
Surinam grass; [11]
  Surinam Grass plant response rating: 60
johnsongrass
  Plant response rating (0 = no effect, 100 = complete control), Johnsongrass: 30
johnsongrass; [9]
  Plant response rating, Johnsongrass: 60
johnsongrass; [10]
  Plant response rating, Johnsongrass: 75
johnsongrass; [11]
  Johnsongrass plant response rating: 100
ducksalad; [2]
  Ducksalad plant response rating: 0
ducksalad; [3]
  Ducksalad plant response rating: 50
ducksalad; [4]
  Ducksalad plant response rating: 70
ducksalad; [5]
  Plant response rating, Ducksalad: 85
bermudagrass
  Plant response rating (0 = no effect, 100 = complete control), Bermudagrass: 50
bermudagrass; [9]
  Plant response rating, Bermudagrass: 90
bermudagrass; [10]
  Plant response rating, Bermudagrass: 90
bermudagrass; [11]
  Bermudagrass plant response rating: 100
cocklebur
  Plant response rating (0 = no effect, 100 = complete control), Cocklebur: 0
cocklebur; [9]
  Plant response rating, Cocklebur: 0
cocklebur; [10]
  Plant response rating, Cocklebur: 0
cocklebur; [11]
  Cocklebur plant response rating: 0
pigweed
  Plant response rating (0 = no effect, 100 = complete control), Pigweed: 100
pigweed; [9]
  Plant response rating, Pigweed: 100
pigweed; [10]
  Plant response rating, Pigweed: 100
pigweed; [11]
  Pigweed plant response rating: 100
soybean
  Plant response rating (0 = no effect, 100 = complete control), Soybean: 0
soybean; [9]
  Plant response rating, Soybean: 0
soybean; [10]
  Plant response rating, Soybean: 10
soybean; [11]
  Soybean plant response rating: 70
velvetleaf; 2000 g ai/ha
  Plant response rating, Velvetleaf: 55
  Velvetleaf plant response rating: 70
velvetleaf; 500 g ai/ha
  Velvetleaf plant response rating: 20
goosegrass
  Plant response rating (0 = no effect, 100 = complete control), Goosegrass: 10
goosegrass; [9]
  Plant response rating, Goosegrass: 45
goosegrass; [10]
  Plant response rating, Goosegrass: 60
goosegrass; [11]
  Goosegrass plant response rating: 90
